What was measured:
[1] = molecular target: Tyrosine-protein kinase receptor UFO (Homo sapiens) (UniProt P30530); test: Selectivity interaction (KinomeScan (DiscoverX)) EUB0000595a AXL; conditions: at 10 µM
[2] = molecular target: ALK tyrosine kinase receptor (Homo sapiens, UniProt Q9UM73); test: Selectivity interaction (KinomeScan (DiscoverX)) EUB0000666a ALK; conditions: at 10 µM
[3] = molecular target: Death-associated protein kinase 3 (Homo sapiens) (UniProt O43293); test: Selectivity interaction (KinomeScan (DiscoverX)) EUB0000666a DAPK3; conditions: at 10 µM
[4] = molecular target: Lethal(3)malignant brain tumor-like protein 3 (Homo sapiens) (UniProt Q96JM7); test: Selectivity interaction (PWWP, WD40, and Tudor domain panel (DSLS measurements, literature)) EUB0000270b L3MBTL3
[5] = molecular target: Myosin light chain kinase, smooth muscle (Homo sapiens, UniProt Q15746); conditions: at 10 µM
[6] = molecular target: Histone-lysine N-methyltransferase, H3 lysine-36 specific (Homo sapiens) (UniProt Q96L73); test: Selectivity interaction (Methyltransferase screen (radiometric assays, panel of 8 PRMTs, 21 protein lysine methyltransferases, 3 DNA methyltransferases, and one RNA methyltransferase)) EUB0000271b NSD1
Sequence of Histone-lysine N-methyltransferase, H3 lysine-36 specific (Homo sapiens) (Q96L73 whole entry): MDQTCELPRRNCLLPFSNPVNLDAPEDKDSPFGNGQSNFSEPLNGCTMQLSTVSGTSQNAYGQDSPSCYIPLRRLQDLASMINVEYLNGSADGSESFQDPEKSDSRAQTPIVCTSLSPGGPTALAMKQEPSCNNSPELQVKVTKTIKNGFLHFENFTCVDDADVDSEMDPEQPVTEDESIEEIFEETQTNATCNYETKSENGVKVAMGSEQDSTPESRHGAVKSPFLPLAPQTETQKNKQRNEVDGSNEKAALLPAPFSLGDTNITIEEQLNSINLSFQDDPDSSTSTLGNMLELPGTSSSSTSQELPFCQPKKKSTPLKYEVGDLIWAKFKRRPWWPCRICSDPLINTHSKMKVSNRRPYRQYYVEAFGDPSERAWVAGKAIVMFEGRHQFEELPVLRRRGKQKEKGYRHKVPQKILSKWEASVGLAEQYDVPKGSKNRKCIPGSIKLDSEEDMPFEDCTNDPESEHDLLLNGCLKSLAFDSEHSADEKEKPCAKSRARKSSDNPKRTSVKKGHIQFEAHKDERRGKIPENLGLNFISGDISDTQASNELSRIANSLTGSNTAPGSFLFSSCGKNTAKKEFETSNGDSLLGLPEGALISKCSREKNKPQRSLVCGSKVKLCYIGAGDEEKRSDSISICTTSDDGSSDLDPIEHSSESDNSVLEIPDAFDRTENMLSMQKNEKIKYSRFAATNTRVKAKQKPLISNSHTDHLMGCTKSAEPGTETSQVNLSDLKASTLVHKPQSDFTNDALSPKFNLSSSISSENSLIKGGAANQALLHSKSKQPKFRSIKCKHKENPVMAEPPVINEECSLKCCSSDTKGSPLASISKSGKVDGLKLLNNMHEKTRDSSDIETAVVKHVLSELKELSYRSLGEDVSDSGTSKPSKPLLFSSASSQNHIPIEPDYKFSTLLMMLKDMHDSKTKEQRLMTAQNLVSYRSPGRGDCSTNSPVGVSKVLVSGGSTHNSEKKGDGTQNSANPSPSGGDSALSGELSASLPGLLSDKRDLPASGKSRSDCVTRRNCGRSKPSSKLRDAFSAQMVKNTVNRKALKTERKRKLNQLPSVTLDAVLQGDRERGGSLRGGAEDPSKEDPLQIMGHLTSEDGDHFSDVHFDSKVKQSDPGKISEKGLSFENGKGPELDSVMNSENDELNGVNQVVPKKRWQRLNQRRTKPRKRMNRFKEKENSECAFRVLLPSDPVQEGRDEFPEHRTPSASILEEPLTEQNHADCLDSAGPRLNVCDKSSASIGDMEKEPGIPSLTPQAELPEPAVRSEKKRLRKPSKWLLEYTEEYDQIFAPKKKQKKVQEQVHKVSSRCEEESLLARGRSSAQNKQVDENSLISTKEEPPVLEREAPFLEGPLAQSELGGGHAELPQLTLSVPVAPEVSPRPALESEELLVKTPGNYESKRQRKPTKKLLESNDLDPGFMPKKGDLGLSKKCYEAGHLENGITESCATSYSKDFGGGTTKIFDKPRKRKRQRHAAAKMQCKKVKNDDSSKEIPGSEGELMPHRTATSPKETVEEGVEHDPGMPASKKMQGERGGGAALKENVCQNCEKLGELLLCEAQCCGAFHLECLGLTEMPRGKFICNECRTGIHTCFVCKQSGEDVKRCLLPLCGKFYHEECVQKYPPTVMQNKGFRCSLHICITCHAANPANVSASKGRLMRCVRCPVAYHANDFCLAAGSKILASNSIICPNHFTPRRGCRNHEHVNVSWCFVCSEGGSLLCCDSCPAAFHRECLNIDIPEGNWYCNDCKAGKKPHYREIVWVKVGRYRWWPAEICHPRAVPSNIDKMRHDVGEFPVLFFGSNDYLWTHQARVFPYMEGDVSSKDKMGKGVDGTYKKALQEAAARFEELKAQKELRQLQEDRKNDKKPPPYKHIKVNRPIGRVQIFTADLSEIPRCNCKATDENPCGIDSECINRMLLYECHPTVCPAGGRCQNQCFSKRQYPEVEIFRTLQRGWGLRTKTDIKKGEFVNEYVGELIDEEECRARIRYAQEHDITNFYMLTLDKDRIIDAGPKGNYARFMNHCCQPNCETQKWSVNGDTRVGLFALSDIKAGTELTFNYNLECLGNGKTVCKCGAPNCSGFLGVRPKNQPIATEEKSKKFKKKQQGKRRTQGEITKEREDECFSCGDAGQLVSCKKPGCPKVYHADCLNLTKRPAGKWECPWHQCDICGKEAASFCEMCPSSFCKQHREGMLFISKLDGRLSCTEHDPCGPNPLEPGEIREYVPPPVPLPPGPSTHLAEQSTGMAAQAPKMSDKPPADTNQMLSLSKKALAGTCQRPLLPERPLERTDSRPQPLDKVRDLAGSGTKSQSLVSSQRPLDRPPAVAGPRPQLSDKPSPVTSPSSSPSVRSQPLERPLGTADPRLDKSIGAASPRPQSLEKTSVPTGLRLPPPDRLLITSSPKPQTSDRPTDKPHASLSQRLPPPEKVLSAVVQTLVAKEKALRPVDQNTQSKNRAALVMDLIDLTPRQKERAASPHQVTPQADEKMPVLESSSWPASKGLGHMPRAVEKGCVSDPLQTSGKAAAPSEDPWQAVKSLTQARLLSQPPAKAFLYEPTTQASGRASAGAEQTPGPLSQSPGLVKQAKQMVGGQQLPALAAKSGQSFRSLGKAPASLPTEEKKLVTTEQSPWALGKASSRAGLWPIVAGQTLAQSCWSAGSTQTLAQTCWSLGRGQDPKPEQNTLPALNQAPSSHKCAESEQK

[7] = molecular target: Proto-oncogene tyrosine-protein kinase receptor Ret (Homo sapiens, UniProt P07949); test: Selectivity interaction (Upstate Kinase Profiler service (Millipore)) EUB0000056c RET; conditions: at 1 µM
[8] = molecular target: Serine/threonine-protein kinase 10 (Homo sapiens) (UniProt O94804); test: Selectivity interaction (ActivX KiNativ screen (ex vivo kinase selectivity in human PBMCs)) EUB0001619a STK10; type: cell-based; conditions: PBMC, at 1 µM
[9] = molecular target: Serine/threonine-protein kinase PAK 6 (Homo sapiens) (UniProt Q9NQU5); test: Selectivity interaction (SelectScreen profiling (Invitrogen)) EUB0000607a PAK6; conditions: at 2 µM
[10] = molecular target: T1, Ephrin type-A receptor 8 (Homo sapiens) (UniProt P29322); test: Selectivity interaction (SelectScreen profiling (Invitrogen)) EUB0000607a EPHA8; conditions: at 2 µM
T1 sequence (whole entry): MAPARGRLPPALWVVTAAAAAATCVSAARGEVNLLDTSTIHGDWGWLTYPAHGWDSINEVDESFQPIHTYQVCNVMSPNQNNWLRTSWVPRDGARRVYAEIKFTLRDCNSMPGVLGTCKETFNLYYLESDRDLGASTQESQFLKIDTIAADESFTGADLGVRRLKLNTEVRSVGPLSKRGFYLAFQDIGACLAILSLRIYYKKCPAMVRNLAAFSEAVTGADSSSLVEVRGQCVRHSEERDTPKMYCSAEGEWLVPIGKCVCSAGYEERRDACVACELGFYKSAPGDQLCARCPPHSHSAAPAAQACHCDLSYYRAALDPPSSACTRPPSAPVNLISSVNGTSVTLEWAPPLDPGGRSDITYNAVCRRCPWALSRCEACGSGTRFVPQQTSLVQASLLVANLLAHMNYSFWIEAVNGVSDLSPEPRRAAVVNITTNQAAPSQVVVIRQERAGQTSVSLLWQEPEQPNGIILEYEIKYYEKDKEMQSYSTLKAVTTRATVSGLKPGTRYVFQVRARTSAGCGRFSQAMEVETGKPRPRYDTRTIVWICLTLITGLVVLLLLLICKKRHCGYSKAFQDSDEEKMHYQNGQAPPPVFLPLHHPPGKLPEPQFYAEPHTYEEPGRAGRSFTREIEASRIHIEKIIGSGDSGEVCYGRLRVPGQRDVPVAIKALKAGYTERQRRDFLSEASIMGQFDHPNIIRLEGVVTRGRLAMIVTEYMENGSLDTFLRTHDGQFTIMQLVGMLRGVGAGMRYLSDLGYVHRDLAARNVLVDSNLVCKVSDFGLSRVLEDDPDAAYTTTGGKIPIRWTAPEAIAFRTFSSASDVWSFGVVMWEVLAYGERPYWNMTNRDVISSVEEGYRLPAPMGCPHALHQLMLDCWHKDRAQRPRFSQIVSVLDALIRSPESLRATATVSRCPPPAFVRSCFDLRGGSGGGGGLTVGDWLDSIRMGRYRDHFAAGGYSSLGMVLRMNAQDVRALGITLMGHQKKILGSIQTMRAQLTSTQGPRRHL

[11] = molecular target: T2, Dual specificity mitogen-activated protein kinase kinase 7 (Homo sapiens) (UniProt O14733); test: Selectivity interaction (KinomeScan (DiscoverX)) EUB0000618a MAP2K7; conditions: at 10 µM
T2 sequence (whole entry): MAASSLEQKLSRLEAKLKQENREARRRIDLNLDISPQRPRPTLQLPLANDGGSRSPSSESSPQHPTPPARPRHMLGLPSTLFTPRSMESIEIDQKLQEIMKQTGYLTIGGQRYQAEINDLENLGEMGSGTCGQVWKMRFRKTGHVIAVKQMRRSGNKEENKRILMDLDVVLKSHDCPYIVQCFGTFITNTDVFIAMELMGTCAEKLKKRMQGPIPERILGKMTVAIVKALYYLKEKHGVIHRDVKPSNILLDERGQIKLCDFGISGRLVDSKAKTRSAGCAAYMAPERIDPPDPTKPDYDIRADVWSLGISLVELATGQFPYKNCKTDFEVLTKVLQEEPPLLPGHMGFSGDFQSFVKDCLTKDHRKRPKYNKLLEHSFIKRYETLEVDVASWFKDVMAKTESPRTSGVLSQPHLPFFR

[12] = molecular target: T3, Aurora kinase A (Homo sapiens) (UniProt O14965); test: Selectivity interaction (ActivX KiNativ screen (kinase selectivity in THP-1 cell lysates)) EUB0000639a STK6; type: subcellular; conditions: lysate, at 5 µM
T3 sequence (whole entry): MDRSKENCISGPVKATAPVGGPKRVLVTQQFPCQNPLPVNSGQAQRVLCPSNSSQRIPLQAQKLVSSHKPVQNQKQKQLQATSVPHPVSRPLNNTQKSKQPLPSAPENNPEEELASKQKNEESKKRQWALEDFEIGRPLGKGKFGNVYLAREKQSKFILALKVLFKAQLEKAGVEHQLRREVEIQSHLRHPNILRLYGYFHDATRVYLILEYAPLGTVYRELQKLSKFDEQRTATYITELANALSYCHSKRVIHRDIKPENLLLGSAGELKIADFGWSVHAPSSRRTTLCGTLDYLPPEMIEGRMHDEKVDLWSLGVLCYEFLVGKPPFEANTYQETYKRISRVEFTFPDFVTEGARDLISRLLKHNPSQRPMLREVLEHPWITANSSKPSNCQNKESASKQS

[13] = molecular target: Platelet-derived growth factor receptor alpha (Homo sapiens, UniProt P16234); test: Selectivity interaction (Kinase panel (Invitrogen)) EUB0000639a PDGFRA; conditions: at 200 nM
[14] = molecular target: Tyrosine-protein kinase CSK (Homo sapiens) (UniProt P41240); test: Selectivity interaction (KinomeScan (DiscoverX)) EUB0000655a CSK; conditions: at 10 µM
[15] = molecular target: Protein kinase C theta type (Homo sapiens, UniProt Q04759); test: Selectivity interaction (Ambit KINOMEscan and KiNATiv profiling in Jurkat cells) EUB0000090b PRKCQ; type: cell-based; conditions: at 1 µM
Sequence of Protein kinase C theta type (Q04759 whole entry, looked up): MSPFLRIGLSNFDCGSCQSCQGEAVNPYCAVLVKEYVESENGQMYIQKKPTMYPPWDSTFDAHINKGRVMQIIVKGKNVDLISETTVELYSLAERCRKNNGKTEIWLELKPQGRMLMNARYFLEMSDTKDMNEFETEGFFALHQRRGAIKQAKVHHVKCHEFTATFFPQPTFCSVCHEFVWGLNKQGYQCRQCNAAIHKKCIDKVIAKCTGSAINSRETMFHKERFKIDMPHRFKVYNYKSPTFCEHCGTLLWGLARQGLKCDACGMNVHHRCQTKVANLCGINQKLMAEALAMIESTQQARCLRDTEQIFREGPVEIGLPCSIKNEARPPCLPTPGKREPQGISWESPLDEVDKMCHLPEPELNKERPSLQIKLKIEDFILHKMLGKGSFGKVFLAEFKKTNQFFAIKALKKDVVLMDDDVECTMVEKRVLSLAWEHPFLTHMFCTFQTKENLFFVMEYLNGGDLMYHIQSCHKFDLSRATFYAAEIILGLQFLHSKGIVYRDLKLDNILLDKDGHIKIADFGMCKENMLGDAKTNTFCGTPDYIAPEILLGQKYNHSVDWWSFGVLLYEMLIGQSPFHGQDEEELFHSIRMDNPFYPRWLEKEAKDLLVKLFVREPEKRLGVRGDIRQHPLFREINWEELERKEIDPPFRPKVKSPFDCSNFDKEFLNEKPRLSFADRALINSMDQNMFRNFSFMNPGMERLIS

Sequence of ALK tyrosine kinase receptor (Q9UM73 19-1620 limits assumed): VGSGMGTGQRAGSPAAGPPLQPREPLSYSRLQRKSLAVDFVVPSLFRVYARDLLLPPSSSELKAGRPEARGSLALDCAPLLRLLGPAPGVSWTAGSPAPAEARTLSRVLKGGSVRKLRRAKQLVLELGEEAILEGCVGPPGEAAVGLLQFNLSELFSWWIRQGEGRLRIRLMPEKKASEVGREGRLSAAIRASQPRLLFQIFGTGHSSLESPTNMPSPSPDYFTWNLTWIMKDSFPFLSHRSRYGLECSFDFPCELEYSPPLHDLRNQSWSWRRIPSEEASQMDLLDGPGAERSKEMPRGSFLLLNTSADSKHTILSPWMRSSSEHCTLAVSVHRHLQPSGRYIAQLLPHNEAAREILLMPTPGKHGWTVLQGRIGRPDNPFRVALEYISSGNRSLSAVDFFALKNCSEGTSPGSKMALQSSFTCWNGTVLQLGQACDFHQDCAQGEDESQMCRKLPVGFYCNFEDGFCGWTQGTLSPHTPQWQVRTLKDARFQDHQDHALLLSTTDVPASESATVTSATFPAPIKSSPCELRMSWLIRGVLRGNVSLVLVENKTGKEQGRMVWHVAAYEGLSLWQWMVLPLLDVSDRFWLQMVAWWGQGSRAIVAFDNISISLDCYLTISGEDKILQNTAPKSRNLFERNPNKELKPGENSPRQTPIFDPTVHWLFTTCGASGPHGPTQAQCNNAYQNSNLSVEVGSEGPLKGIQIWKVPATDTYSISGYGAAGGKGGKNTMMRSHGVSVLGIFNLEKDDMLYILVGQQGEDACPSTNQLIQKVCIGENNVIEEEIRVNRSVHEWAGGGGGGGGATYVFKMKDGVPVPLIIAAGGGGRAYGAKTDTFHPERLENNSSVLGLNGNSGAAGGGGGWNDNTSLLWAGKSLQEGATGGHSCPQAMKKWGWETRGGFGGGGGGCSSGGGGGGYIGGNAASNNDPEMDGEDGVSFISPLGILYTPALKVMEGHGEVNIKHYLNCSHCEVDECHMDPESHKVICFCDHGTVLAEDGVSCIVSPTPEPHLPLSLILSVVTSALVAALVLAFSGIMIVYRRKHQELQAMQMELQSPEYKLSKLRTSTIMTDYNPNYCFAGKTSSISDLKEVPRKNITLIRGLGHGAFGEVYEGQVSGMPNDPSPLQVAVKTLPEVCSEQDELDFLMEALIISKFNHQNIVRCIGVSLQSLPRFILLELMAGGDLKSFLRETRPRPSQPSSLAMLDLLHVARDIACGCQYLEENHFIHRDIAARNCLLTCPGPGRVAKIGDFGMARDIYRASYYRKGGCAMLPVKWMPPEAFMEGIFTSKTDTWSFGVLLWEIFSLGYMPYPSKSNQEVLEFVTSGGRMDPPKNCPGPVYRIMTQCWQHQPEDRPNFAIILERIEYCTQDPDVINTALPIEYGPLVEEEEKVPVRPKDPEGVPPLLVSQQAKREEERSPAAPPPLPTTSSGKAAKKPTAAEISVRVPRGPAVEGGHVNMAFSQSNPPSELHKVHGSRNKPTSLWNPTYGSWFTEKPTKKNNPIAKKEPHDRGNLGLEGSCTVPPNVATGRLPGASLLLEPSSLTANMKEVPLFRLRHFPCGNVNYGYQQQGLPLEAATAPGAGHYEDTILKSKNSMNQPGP

**Q.** With COCC(=O)NC/C=C/c1ccc2ncnc(Nc3ccc(Oc4ccc(C)nc4)c(C)c3)c2c1 [CP-724714] as the compound, how does the % of control [1] read?
**A.** The % of control was 68%.

**Q.** How did the % of control [2] turn out when O=C(NOC[C@H](O)CO)c1ccc(F)c(F)c1Nc1ccc(I)cc1F was run?
**A.** The % of control was 100%.

**Q.** And the % of control [3]?
**A.** The % of control was 100%.

**Q.** How did the dTagg [4] turn out when Cc1cc(CN)cc(C)c1-c1ncn(C)c1-c1cncn1C was run?
**A.** The dTagg was 0.2 K.

**Q.** Cc1cc([C@@H](C)Nc2ccccc2C(=O)O)c2nc(N3CCOCC3)cc(=O)n2c1 [AZD-6482] was tested. Which % of control [5] did it give?
**A.** Its % of control is 100%.

**Q.** Which results are given for Cc1cc(C)cc([C@@H]2c3cc(C)ccc3NC(=O)CN2C(=O)c2ccc(Br)s2)c1?
**A.** % of activity ([6]; at 1 µM): 97%; % of activity ([6]; at 10 µM): 103%

**Q.** With Cc1ccc(-c2ccc3c(ccc4sc5c(c43)NC[C@@H](C)NC5=O)n2)cn1 as the compound, how does the % of inhibition [7] read?
**A.** The % of inhibition was 46%.

**Q.** For N#Cc1cccc(-c2c[nH]c3ncnc(N4CCOCC4)c23)c1, which % of inhibition [8] is on record?
**A.** The % of inhibition was 60%.

**Q.** What does the source list for CNC(=O)Nc1ccc(-c2nc(N3CC4CCC(C3)O4)c3cnn(C4CCC5(CC4)OCCO5)c3n2)cc1?
**A.** % of inhibition [9]: 9%; % of inhibition [10]: 24%

**Q.** Which % of control [11] does the source give for O[C@H]1CC[C@H](Nc2ncc3nc(Nc4c(F)cc(F)cc4F)n([C@H]4CCOC4)c3n2)CC1 here?
**A.** Its % of control is 94%.

**Q.** CC[C@@H]1[C@H](F)C(=O)N[C@@H]1COc1nccc2cc(C(N)=O)c(OC)cc12 [ZIMLOVISERTIB] was tested. Which % of inhibition [12] did it give?
**A.** The % of inhibition was 64.4%.

**Q.** What about the % of inhibition [13] of the same compound?
**A.** Its % of inhibition is -1.69%.

**Q.** How did the % of control [14] turn out when CN(C)CCOc1ccc(-c2nc(-c3ccncc3)c(-c3ccc4c(c3)CC/C4=N\O)[nH]2)cc1 was run?
**A.** The % of control was 97%.

**Q.** For CN(C)C/C=C/C(=O)Nc1ccc(C(=O)N2CCCC(Nc3ncc(Cl)c(-c4c[nH]c5ccccc45)n3)C2)cc1 (stereo unspecified), which % of control [15] is on record?
**A.** The % of control was 100%.
